We go through one molecule from patent publication US11491132B2, “Methods for treating thrombocytopenia” (Enzychem Lifesciences Corporation, priority 2014, dated 2022).

In experiment [1] the test system is PKCθ/p38 MAPK/ERK pathway. Nature of the experiment: Dephosphorylation of p38 MAPK and ERK1/2 in PLAG-treated RBL-2H3 cells, western blot. The note with it: PLAG pre-incubated RBL-2H3 cells, IgE-antigen complex stimulation. The format is cell-based. The procedure:
Dephosphorylation of p38 MAPK and ERK1/2 in PLAG-treated RBL-2H3 cells is determined by western blot analysis using anti-phospho-p38 and anti-phospho-ERK1/2 respectively. To activate the p38 and ERK1/2 in RBL-2H3 cells, the cells are sensitized with 50 ng/mL of anti-DNP-IgE overnight. After washing with PBS three times, 20 ng/ml of DNP-HSA is added. Each cell lysate for western blot is prepared in the PLAG-treated RBL-2H3 cells in a dose-dependent manner and incubated for the same time (15 min). β-actin is used as internal controls. ERK1/2 and p38 phosphorylation start immediately after IgE-antigen complex stimulation and remain sufficiently activated for 5 min.

In experiment [2] the test system is C3. Put plainly: C3 inhibition by PLAG in HMC-1, ELISA. Particulars: HMC-1 cells, PLAG 1, 10 and 100 μg/mL for 2 hours, activated 72 hours. The format is cell-based, human. How it is done:
In a separate experiment, human mast cells (HMC-1, 1×10^5 cell/ml) are treated with PLAG of various concentrations (1, 10 and 100 μg/mL) for 2 hours. The cells are activated for 72 hours with 10% FBS (Fetal bovine serum) containing IMDM. The decrease of C3 is confirmed by ELISA analysis of the expressed protein.

Experiment [3] deals with neutrophils, platelets, Complement 3. Put plainly: Chemotherapy-induced neutropenia and thrombocytopenia (CIN) animal model. The format is in vivo, mice. How it is done: The effect of PLAG for treatment of neutropenia and thrombocytopenia induced by chemotherapy (CIN) is evaluated in an animal model. Anti-cancer agents (Gemcitabine 50 mg/kg, Cyclosphosphamide […], or Tamoxifen 50 mg/kg) are dosed daily for 3 weeks; PLAG is also administered 50 mg/kg daily for 3 weeks. After three weeks, neutrophils are harvested and counted with Auto Hematology Analyzer BC-5300.
It is believed that the neutropenia and thrombocytopenia of these agents and other chemotherapeutic agents may be due at least in part to a specific complement-mediated toxicity. This is seen in FIG. 6.

The subject of experiment [4] is platelets. Nature of the experiment: Phenylhydrazine-induced platelet reduction in mice. The format is in vivo. The note with it: PHZ 100 mg/kg i.p., PLAG 5 mg/kg orally. The procedure:
To evaluate the effect of PLAG on the concentration of platelets mice are treated with compounds which would be expected to cause reductions in platelet numbers, specifically phenylhydrazine, tamoxifen or lipopolysaccharide.
Mice are injected with 100 mg/kg phenylhydrazine (PHZ), i.p., to induce anemia and reduction of platelets. 5 mg/kg PLAG is administered to the mice orally and blood samples are taken at 3 and 13 days after. In addition, for comparison, normal mice which are not treated with phenylhydrazine are prepared as a normal group, and mice treated with PHZ and olive oil instead of PLAG are prepared as a control group. The blood samples taken from the mice are treated with 0.5 ml EDTA (Minicollect tube, Greiner bio-one, Austria) and concentration of platelet is measured using automated blood sample analyzer BC-6800 (Mindray, Shenzhen, China) by number of platelet per […] (k: 1,000).

Experiment [5] relates to hematopoietic stem cells and megakaryocytes. Particulars: reported in WO 99/26640; cited from earlier work.
Experiment [6] deals with T1, STAT1 (Homo sapiens, UniProt P42224).
T1 sequence (P42224 1-750): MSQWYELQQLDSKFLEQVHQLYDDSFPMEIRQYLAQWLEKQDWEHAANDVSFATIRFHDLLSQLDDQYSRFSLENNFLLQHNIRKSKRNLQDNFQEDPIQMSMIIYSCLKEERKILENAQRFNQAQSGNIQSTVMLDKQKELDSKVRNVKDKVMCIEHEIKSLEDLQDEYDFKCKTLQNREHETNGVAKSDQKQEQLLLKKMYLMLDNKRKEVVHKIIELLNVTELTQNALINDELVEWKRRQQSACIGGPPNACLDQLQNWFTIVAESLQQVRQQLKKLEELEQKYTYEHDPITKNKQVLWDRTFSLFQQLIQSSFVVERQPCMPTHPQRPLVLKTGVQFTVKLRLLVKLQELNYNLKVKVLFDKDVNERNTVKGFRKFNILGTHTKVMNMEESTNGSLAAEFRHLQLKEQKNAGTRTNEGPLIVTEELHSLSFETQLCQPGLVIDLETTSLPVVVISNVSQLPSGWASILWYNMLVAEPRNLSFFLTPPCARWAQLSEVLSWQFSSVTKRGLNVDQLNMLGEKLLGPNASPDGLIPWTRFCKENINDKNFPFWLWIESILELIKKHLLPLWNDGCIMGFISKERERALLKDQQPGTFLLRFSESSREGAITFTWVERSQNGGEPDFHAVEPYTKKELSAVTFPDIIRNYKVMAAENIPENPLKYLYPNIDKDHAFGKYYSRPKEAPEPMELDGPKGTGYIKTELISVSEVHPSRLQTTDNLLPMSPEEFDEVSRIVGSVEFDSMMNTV
Nature of the experiment: Reporter assay for STAT1 transcriptional activity in HepG2 cells. The format is cell-based. The arrangement: For the STAT1 assay, gene transfected HepG2 (human hepatocyte cell line) is treated with 10 ng of IFN-γ; endogenous in cells; host or cells: HepG2 (gene transfected). The note with it: gene transfected HepG2, 10 ng IFN-γ, PLAG 0.01-10 μg/ml, 12 hours incubation. The procedure:
By using STAT6 inhibitor (S6I), it is confirmed that the reduction of Complement 3 in HepG2 cells (human hepatocyte cell line) is regulated by STAT6. […] It is also confirmed that PLAG has selective efficacy on STAT6 over STAT1. FIG. 1 presents graphs showing STAT1 and STAT6 transcriptional activity in the PLAG treated HepG2 cells. NC refers to the unstimulated control cell. For the STAT1 assay, gene transfected HepG2 (human hepatocyte cell line) is treated with 10 ng of IFN-γ and serially diluted PLAG is added (0.01 μg/ml, 0.1 μg/ml, 1 μg/ml, and 10 μg/ml as shown) to see its effect on gene expression in the stimulated cell. For the STAT6 assay, gene transfected HepG2 cells are treated with 10 ng of IL-4 and again serially diluted PLAG is added (0.01 μg/ml, 0.1 μg/ml, 1 μg/ml, and 10 μg/ml as shown) to see its effect on gene expression in the stimulated cell. The assay is carried out following 12 hours incubation of treated cells.
A general note: In a reporter assay the amount or activity of a reporter protein is the signal.

Take `CCCCC/C=C\C/C=C\CCCCCCCC(=O)OC(COC(C)=O)COC(=O)CCCCCCCCCCCCCCC` (racemic) [PLAG, 1-palmitoyl-2-linoleoyl-3-acetylglycerol]: the “ERK1/2 and p38 phosphorylation” value in experiment [1] is “down-regulated”. Moreover, the “decrease of C3 (expressed protein, ELISA)” value in experiment [2] is reported as “proportional to the concentration of PLAG”. Also, the neutrophil score result in experiment [3] (Gemcitabine 50 mg/kg with PLAG 50 mg/kg) is reported as “improved significantly”. In experiment [3] (Gemcitabine with continued PLAG vs Gemcitabine alone), the survival rate result is on record as “improved survival rate”. In experiment [3] (Gemcitabine, Cyclophosphamide or Tamoxifen daily 3 weeks, PLAG 50 mg/kg daily 3 weeks), the “reduced neutrophil count following chemotherapy” value was “prevented”. Also, in experiment [3] (Gemcitabine, Cyclophosphamide or Tamoxifen with PLAG), the “Complement 3 activation by chemotherapeutic agents, blockage” value is recorded as “largely blocked”. Also, in experiment [3] (Tamoxifen 50 mg/kg co-treated with PLAG 50 mg/kg vs Tamoxifen only), the “activities and survival rate” value is “faster improvement of activities and survival rate”. The neutrophil count entry in experiment [3] (cyclophosphamide with PLAG 50 mg/kg vs control group) is listed as “improved significantly”. In addition, in experiment [4], the “Platelet (day 3) Conc” value was 1072 ± 125.4 k/ul. Further, in experiment [5], the “growth-stimulating activities of hematopoietic stem cells and megakaryocytes” value is listed as “growth-stimulating activities”. Moreover, the “STAT1 expression (transcriptional activity, reporter)” value in experiment [6] is given as “no effect”.
